From patent EP0415456A2, “Xanthine compounds” (priority 1989, dated 1991)

Legend:
[1] = test system: male dd-strain mice; experiment: acute toxicity test; type: in vivo
Protocol: […]. The Minimum lethal dose (MLD) of the compounds was determined by observing whether or not the mice were alive after 7 days of the administration.

[2] = target: T1, Adenosine A₁ Receptor (Cavia porcellus, UniProt P47745); experiment: Adenosine A1 receptor binding (3H-CHA binding); set-up: species or system guinea pig; details: for Ratio of Ki Values [A₂/A₁]: A₂ Ki (rat corpus striatum) / A₁ Ki (guinea pig cerebrum); for Ki: calculated from Cheng-Prusoff's equation, ³H-CHA; for Ki / inhibition at 100 µM / inhibition at 10 µM: guinea pig cerebrum; for inhibition at 100 µM: concentration of tested compound 10⁻⁴ M; for inhibition at 100 µM / inhibition at 10 µM: ³H-CHA 1.1 nM; for inhibition at 10 µM: concentration of tested compound 10⁻⁵ M
T1 construct: from tissue; host or cells: guinea pig cerebrum membrane preparation
T1 sequence (P47745 1-326): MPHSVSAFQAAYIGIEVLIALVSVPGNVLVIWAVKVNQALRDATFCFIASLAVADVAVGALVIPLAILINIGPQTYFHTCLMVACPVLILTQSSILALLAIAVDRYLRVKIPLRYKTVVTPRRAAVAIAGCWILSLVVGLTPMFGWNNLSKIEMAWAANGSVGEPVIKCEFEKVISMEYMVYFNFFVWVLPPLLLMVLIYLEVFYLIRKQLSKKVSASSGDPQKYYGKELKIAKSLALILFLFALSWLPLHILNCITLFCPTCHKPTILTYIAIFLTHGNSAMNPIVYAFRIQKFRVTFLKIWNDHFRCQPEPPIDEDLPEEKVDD
Protocol: Cerebrum of a guinea pig was suspended into ice cooled 50 mM tris hydroxymethyl aminomethane hydrochloride (Tris HCl) buffer (pH = 7.7), by using Polytron homogenizer (manufactured by Kinematica Co.). The suspension was centrifuged (50,000 x g, 10 minutes), and the precipitate was resuspended by adding the same volume of 50 mM Tris HCl buffer. The suspension was centrifuged under the same conditions, and the precipitate obtained was suspended once again by adding 10 volumes of 50 mM Tris HCl. The tissue suspension was incubated at 37°C for 30 minutes in the presence of 0.02 units/mg tissue of adenosine deaminase (manufactured by Sigma Co.). The resulting tissue suspension was recentrifuged (50,000 x g, 10 minutes), and 50 mM Tris HCl was added to the precipitate to adjust the concentration of tissue to 10 mg (wet weight)/mℓ.
The mixture was incubated at 25°C for 90 minutes, and the resulting reaction was stopped by rapid vacuum filtration through a glass fiber filter (GF/C manufactured by Whatman Co.) followed by immediately washing three times with 5 mℓ each of ice cold 50 mM Tris HCl buffer. […] Its radioactivity was then determined by a scintillation counter (manufactured by Packard Instrument Co.).
The inhibition rate of the test compounds against the binding of A₁ […] (³H-CHA binding) was calculated from the following equation: [formula]
• 1. […] The inhibition constant (Ki value) shown in the table was calculated from Cheng-Prusoff's equation.

[3] = target: T2, A₂ receptor (Rattus norvegicus, UniProt P30543); experiment: Adenosine A2 receptor binding (3H-NECA binding); details: for inhibition at 10 µM / inhibition at 100 µM: read-out: A₂ Receptor Inhibition (%); for Ki: ³H-NECA with CPA, rat corpus striatum, read-out: A₂ Receptor Ki
T2 construct: A precipitate was prepared from rat corpus striatum; from tissue; host or cells: rat corpus striatum membrane preparation
Protocol: A precipitate was prepared from rat corpus striatum in a similar manner as in 1) above. The precipitate was suspended by adding a 50 mM Tris HCl buffer containing 10 mM magnesium chloride and 0.02 unit/mg (tissue) of adenosine deaminase (manufactured by Sigma Co.) to adjust the concentration of tissue to 5 mg (wet weight)/mℓ.
The mixture was incubated at 25°C within 120 minutes. The resulting mixture was treated in the same manner as in 1) above to determine its radioactivity.
The inhibition rate of the test compound against the binding of A₂ receptor (³H-NECA binding) was calculated from the following equation: [formula]

[4] = test system: Wistar rats; experiment: diuretic effect; type: in vivo; details: 25 mg/kg oral, urine collected for 6 hours; for Increase in K⁺ excretion (%) / Increase in Na⁺excretion (%) / Increase in Urine (%): relative to control; for Na⁺/K⁺: relative value of control (control 1.00)
Protocol: Wistar rats (male: 150 - 300 g) were starved for 18 hours prior to the administration of the test compounds. […] Urine was collected for 6 hours after the administration. Urine volume was measured and the electrolytes (Na+ and K+) in the urine were determined with a flame photome[…], Hitachi Ltd., Japan). All parameters are expressed as relative values of control.

[5] = test system: glycerol-induced renal failure model; experiment: renal-protecting effect (glycerol-induced renal failure model); type: in vivo; details: male Wistar rats; for suppression of increases of the serum creatinine and of urine-nitrogen: 0.01 - 10 mg/kg i.p., 24 hours after 50% glycerol s.c. (p < 0.05)
Protocol: A renal failure is a state wherein the renal function is lowered and the homeostasis of a body fluid can be no more maintained. It is known that an acute renal failure characteristic of uriniferous tubule disorder is caused by subcutaneous or intramuscular injection of glycerol to rats [Can. J. Physiol.
Male Wistar rats were kept deprived or water for 18 hours, and served for the test. A test compound was intraperitoneally administered to the rats (dosage: 1 mℓ/kg) and the rats were anesthetized with ether and 50% glycerol was subcutaneously administered (dosage: 0.8mℓ/100g) to the rats, pinching the dorsal skin. Twenty four hours after the administration of glycerol, the rats were anesthetized with ether and 5 mℓ of blood were collected from the abdominal aorta. The collected blood was allowed to stand for 30 minutes or longer and then centrifuged at 3,000 rpm for 10 minutes, and the amounts of the serum creatinine and urine-nitrogen (UN) contained in the serum were determined by auto analyzer (Olympus AU510) or measured by a creatinine test Wako (Jaffé method) and UN Test Wako (diacetylmonooxime direct method). Both are manufactured by Wako Pure Chemicals Co.
On the other hand, the left kidneys of the blood-sampled rats were removed and placed in formalin-filled vial bottles, and used as samples for the pathological examination.

T2 sequence (P30543 whole entry): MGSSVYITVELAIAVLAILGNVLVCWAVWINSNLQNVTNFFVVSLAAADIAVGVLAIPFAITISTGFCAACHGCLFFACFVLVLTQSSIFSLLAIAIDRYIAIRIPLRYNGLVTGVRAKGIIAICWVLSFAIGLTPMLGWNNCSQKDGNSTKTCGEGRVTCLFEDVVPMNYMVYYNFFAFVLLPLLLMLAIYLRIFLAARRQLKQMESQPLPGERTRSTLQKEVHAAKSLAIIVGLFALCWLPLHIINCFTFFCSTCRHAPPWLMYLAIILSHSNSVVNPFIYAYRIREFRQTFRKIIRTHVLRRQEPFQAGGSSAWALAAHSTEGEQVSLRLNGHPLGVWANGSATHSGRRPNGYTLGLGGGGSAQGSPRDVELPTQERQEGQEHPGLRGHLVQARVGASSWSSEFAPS

| SMILES | Ratio of Ki Values [A₂/A₁] [2] | Ki [2] | inhibition at 100 µM [2] | inhibition at 10 µM [2] | inhibition at 10 µM [3] | inhibition at 100 µM [3] | Ki [3] | Increase in K⁺ excretion (%) [4] | Increase in Na⁺excretion (%) [4] | Increase in Urine (%) [4] | Na⁺/K⁺ [4] | further results |
| --- | --- | --- | --- | --- | --- | --- | --- | --- | --- | --- | --- | --- |
| CCCn1c(=O)c2nc(CC34CC5CC(CC(C5)C3)C4)[nH]c2n(CCC)c1=O [Compound 15, 8-(Adamantan-1-yl)methyl-1,3-dipropylxanthine] |  |  |  |  |  |  |  |  |  |  |  | Minimum lethal dose (MLD) ([1]; mouse, in vivo, 10080 min): more than 300 mg/kg |
| CCCn1c(=O)c2c(nc(C34CC5CC(CC3C5)C4)n2C)n(CCC)c1=O [Compound 20, 1,3-Dipropyl-7-methyl-8-(noradamantan-3-yl)xanthine] |  |  |  |  |  |  |  |  |  |  |  | Minimum lethal dose (MLD) ([1]; 300 mg/kg orally administered, male dd-strain mice, observed 7 days after administration): more than 300 mg/kg |
| CCn1c(=O)c2[nH]c(C34CC5CC(CC3C5)C4)nc2n(CC)c1=O [Compound 28, 8-(Noradamantan-3-yl)-1,3-diethylxanthine] | 132 | 7.1 nM | 101% | 100% | 61% | 78% | 940 nM |  |  |  |  |  |
| CCCCn1c(=O)c2[nH]c(C34CC5CC(CC3C5)C4)nc2n(CCCC)c1=O [Compound 29, 8-(Noradamantan-3-yl)-1,3-dibutylxanthine] | 107 | 9.1 nM | 100% | 100% | 72% | 78% | 970 nM | 65% | 137% | 123% | 1.43 |  |
| CC(C)Cn1c(=O)n(C)c(=O)c2[nH]c(C34CC5CC(CC3C5)C4)nc21 [Compound 30, 8-(Noradamantan-3-yl)-3-isobutyl-1-methylxanthine] |  |  |  |  |  |  |  | 50% | 126% | 112% | 1.50 |  |
| CCCn1c(=S)c2[nH]c(C34CC5CC(CC3C5)C4)nc2n(CCC)c1=O [Compound 32, 8-(Noradamantan-3-yl)-1,3-dipropyl-6-thioxanthine] |  |  |  |  |  |  |  | 41% | 114% | 100% | 1.51 | Minimum lethal dose (MLD) ([1]; mouse, in vivo, 10080 min): more than 300 mg/kg |
| NS(=O)(=O)c1cc(C(=O)O)c(NCc2ccco2)cc1Cl [Furosemide, reference compound] |  |  |  |  |  |  |  |  |  | 75% | 1.07 | effect on serum creatinine ([5]; i.p., 24 hours after 50% glycerol s.c.): showed a tendency to increase the serum creatinine |
| CCCn1c(=O)c2[nH]c(-c3ccc(S(=O)(=O)N(C)CCN(C)C)cc3)nc2n(CCC)c1=O [PD 115199, reference compound] | 0.14 | 190 nM | 100% | 97% | 94% | 98% | 26 nM |  |  |  |  | suppression of increases of the serum creatinine and of urine-nitrogen [5]: totally ineffective |
| CCCn1c(=O)c2[nH]c(-c3ccc(OCC(=O)NCCN)cc3)nc2n(CCC)c1=O [XAC, reference compound] |  |  |  |  |  |  |  |  |  |  |  | suppression of increases of the serum creatinine and of urine-nitrogen [5]: weak effect |
